The record followed here is patent publication US20110195930A1, “PYRIDINE DERIVATIVE OR ITS SALT, PESTICIDE CONTAINING IT AND PROCESS FOR ITS PRODUCTION” (Ishihara Sangyo Kaisha, Ltd., priority 2008, published 2011).

SMILES strings stand for the structures.

In assay [1] the test system is Brown Planthopper (Nilaparvata lugens). The assay can be described thus: Test on controlling effects against brown planthopper (rice seedling dip). Type of assay: in vivo. To be noted: rice seedling dipped about 10 seconds, second-third instar nymphs, 5th day after the release, 25° C. An excerpt:
Test on Controlling Effects Against Brown Planthopper (Nilaparvata lugens)
Rice seedling was dipped for about 10 seconds in an insecticidal solution adjusted to bring the concentration of the compound of the present invention to 200 ppm and then dried in air, its root was wrapped with a wet absorbent cotton, and the seedling was put into a test tube. Then, 10 second-third instar nymphs of Brown Planthopper were released therein, and the test tube was covered with a gauze and left in a constant temperature chamber at 25° C. with lightening. On the 5th day after the release, dead nymphs were counted, and the mortality was calculated by the following equation.
Mortality (%)=(number of dead insects/number of released insects)×100

The test system of assay [2] is Green Peach Aphid (Myzus persicae). The assay can be described thus: Test on controlling effects against green peach aphid (leaf dip). Format: in vivo. The conditions noted are these: foliar, 120 h, Japanese radish leaf dipped about 10 seconds, first instar nymphs, 5 days after the treatment, 25° C. An excerpt:
Test on Controlling Effects Against Green Peach Aphid (Myzus persicae)
A Japanese radish leaf was inserted in a test tube in which water was put, and about 20 first instar nymphs of green peach aphid were released on the leaf. On the next day, the number of nymphs parasitic on the leaf was counted, and then the leaf was dipped for about 10 seconds in an insecticidal solution adjusted to bring the concentration of the compound of the present invention to 200 ppm, dried in air and left in a constant temperature chamber at 25° C. with lightening. Dead nymphs were counted 5 days after the treatment, and the mortality was calculated by the following equation. The insects dropped from the leaf or presented toxic symptom were counted as dead insects.
Mortality (%)=(1−(number of survived insects/number of treated insects))×100

`CCON=C(c1ccc(C(F)(F)F)cn1)n1cncn1` [compound 24] gave a mortality at 200 ppm in assay [1] not below 90%.

In assay [1], `CC(C)ON=C(c1ncc(C(F)(F)F)cc1Cl)n1cncn1` [Compound No. 13, [3-chloro-5-(trifluoromethyl)pyridin-2-yl](1H-1,2,4-triazol-1-yl)methanone O-isopropyl oxime] yielded a mortality at 200 ppm not below 90%.

Take `FC(F)(F)c1cnc(C(=NOCC2CC2)n2cncn2)c(Cl)c1` [compound 32]: the mortality at 200 ppm in assay [2] and in assay [1] was not below 90% throughout.

For `CCON=C(c1ncc(C(F)(F)F)cc1Cl)n1ccnc1` [compound 11], the mortality at 200 ppm in assay [2] and in assay [1] was not below 90% each time.

`CCON=C(c1cccc(C)n1)n1cncn1` [compound 23] registered a mortality at 200 ppm in assay [1] not below 90%.

`CCON=C(c1ncccc1C(F)(F)F)n1cncn1` [compound 25] registered a mortality at 200 ppm in assay [1] not below 90%.

`CCON=C(c1ncc(C(F)(F)F)cc1C)n1cncn1` [compound 33, [3-methyl-5-(trifluoromethyl)pyridin-2-yl](1H-1,2,4-triazol-1-yl)methanone O-ethyl oxime]: the mortality at 200 ppm in assay [2] and in assay [1] was not below 90% throughout.

Take `CON=C(c1ncc(C(F)(F)F)cc1Cl)n1cncn1` [compound 14]: the mortality at 200 ppm in assay [2] and in assay [1] was not below 90% in each case.

In the case of `CCON=C(c1ncc(C(F)(F)F)cc1Cl)n1cncn1` [Compound No. 10, [3-chloro-5-(trifluoromethyl)pyridin-2-yl](1H-1,2,4-triazol-1-yl)methanone O-oxime], the mortality at 200 ppm in assay [2] and in assay [1] was not below 90% each time.

Compound `CCON=C(c1ncc(C(F)(F)F)cc1Cl)n1cnnc1` [compound 12] returned a mortality at 200 ppm in assay [1] not below 90%.

`CCON=C(c1cc(C(F)(F)F)ccn1)n1cncn1` [compound 26] gave a mortality at 200 ppm in assay [1] not below 90%.

In turn, `CCON=C(c1cccc(C(F)(F)F)n1)n1cncn1` [compound 83] displayed a mortality at 200 ppm in assay [1] not below 90%.

`CCON=C(c1nc(C(F)(F)F)ccc1Cl)n1cncn1` [compound 84] had a mortality at 200 ppm in assay [1] not below 90%.

Regarding `CCON=C(c1ncc(C(F)(F)F)cc1Br)n1cncn1` [compound 31], the mortality at 200 ppm in assay [2] and in assay [1] was not below 90% each time.
